Experiment [1] deals with CAL-85-1. As to conditions: 72 h. As for the experimental part:
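Drug sensitivity and resistance testing (DSRT) of breast cancer cell lines in 384-well plates, 5 concentrations in 10-fold dilutions over a compound-specific 10,000-fold range. After 72 h, cytotoxicity was read by CellTox Green fluorescence and viability by CellTiter-Glo luminescence (multiplexed), normalised to DMSO and benzethonium chloride controls. EC50 is the inflection point of the fitted dose-response curve (bottom asymptote free, so it can be relative for partial curves) and is censored at the highest tested concentration. Rows with DSS 0 (no meaningful response) were excluded.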

The subject of the next experiment is MDA-MB-453. Put plainly: normalised viability (% of control), CellTiter-Blue; higher = more viable cells (100 = DMSO, 0 = benzethonium chloride kill control). As to conditions: incubation time: 72 h. Here is the method: (§1)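 DSRT, CellTiter-Blue viability, 72 h incubation. Signal is normalised to DMSO and benzethonium chloride controls. Value is the normalised response at dose 1.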
(Resazurin is reduced to fluorescent resorufin, in cell work by metabolically active cells.)

Experiment [2] relates to CAL-148. Described as above. As to conditions: incubation time: 72 h. Here is the method: as §1
Another experiment relates to MDA-MB-468. Described as above. As to conditions: incubation time: 72 h. As for the experimental part: as §1
For another experiment, the system named is HDQ-P1. The description is as above. As to conditions: incubation time: 72 h. As for the experimental part:
as §1

In a further experiment the test system is DU-4475. Described as above. As to conditions: incubation time: 72 h. Here is the method:
as §1

A further experiment relates to SK-BR-3. The description is as above. As to conditions: incubation time: 72 h. Here is the method: as §1
For another experiment, the system named is CAL-51. The description is as above. As to conditions: incubation time: 72 h. Here is the method: as §1
In a further experiment the test system is HCC1937. The description is as above. The note with it: incubation time: 72 h. As for the experimental part: as §1
The subject of experiment [3] is MFM-223. The description is as above. As to conditions: incubation time: 72 h. Here is the method:
as §1

The next experiment deals with MDA-MB-436. The description is as above. The note with it: incubation time: 72 h. As for the experimental part: as §1
Another experiment has as its system CAL-120. The experiment is described as above. The note with it: incubation time: 72 h. Here is the method: as §1
A further experiment concerns Hs578T. Described as above. As to conditions: incubation time: 72 h. Here is the method:
as §1

In experiment [4] the test system is HCC1143. The description is as above. As to conditions: incubation time: 72 h. As for the experimental part:
as §1

Experiment [5] has as its system BT-549. The description is as above. As to conditions: incubation time: 72 h. Here is the method:
as §1

In a further experiment the test system is BT-474. The description is as above. The note with it: incubation time: 72 h. As for the experimental part: as §1
Experiment [6] has as its system HCC1599. The description is as above. The note with it: incubation time: 72 h. As for the experimental part: as §1
For experiment [7], the system named is CAL-85-1. Described as above. As to conditions: incubation time: 72 h. As for the experimental part: as §1
The next experiment has as its system MDA-MB-231. The experiment is described as above. As to conditions: incubation time: 72 h. As for the experimental part:
as §1

Experiment [8] deals with HCC1143. The experiment can be described thus: normalised viability (% of control), CellTiter-Blue; higher = more viable cells (about 100 = DMSO control). The note with it: incubation time: 72 h. An outline of the steps: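 Normalised viability is given for a single listed concentration of the series. In 384-well plates, breast cancer cell lines were incubated 72 h with compound, then read with CellTiter-Blue (2 h, 37 °C) at 560/590 nm. Per-plate scaling set vehicle to 100 and a positive kill control to 0, with Z'-factor quality control.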

The subject of experiment [9] is CAL-85-1. As to conditions: 72 h. An outline of the steps:
(§2)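 Plates of 384 wells holding compound in 5 µl medium received breast cancer cell lines in 20 µl suspension and were incubated 72 h. CellTiter-Blue (2.5 µl, 2 h, 37 °C) was used for viability, read at 560/590 nm, and every plate was normalised to vehicle and a positive kill control and assessed by Z'-factor. The EC50 derives from a percent-inhibition dose-response curve fit censored at the highest concentration, leaving out rows whose drug sensitivity score was zero.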
The source holds these as a separate data set.

The subject of experiment [10] is MFM-223. The note with it: 72 h. The essentials: as §2
The subject of experiment [11] is BT-549. As to conditions: 72 h. The essentials:
as §2

Experiment [12] deals with CAL-148. The note with it: 72 h. An outline of the steps:
as §2

Experiment [13] concerns HCC1599. The note with it: 72 h. An outline of the steps:
as §2

SMILES strings stand for the structures. Values joined by “and” are separate entries in the source; they are usually repeats but may differ in a detail not shown here. Identical values can stand only once.

For the compound `CC/C(=C(\c1ccc(O)cc1)c1ccc(OCCN(C)C)cc1)c1ccccc1` [4-hydroxytamoxifen], the “EC50, CellTox Green” value with CAL-85-1 [1] amounted to 7760 nM.
Same read-out and setting: the value for `Cn1cc(CNCC2CCN(c3ncc(C(=O)NO)cn3)CC2)c2ccccc21` [Quisinostat] was 18.5 nM.
Consider `Cc1cccc(-c2nn3c(c2-c2ccnc4ccc(C(N)=O)cc24)CCC3)n1`, for which the normalised viability in the experiment with MDA-MB-453 (0.1 nM) amounted to 108%; in the experiment on CAL-148 [2] (0.1 nM), 104%; in the experiment on MDA-MB-468 (0.1 nM) it was 108%; in the experiment on HDQ-P1 (0.1 nM), 109%; with DU-4475 (0.1 nM), 113%; in the experiment on SK-BR-3 (0.1 nM), 106%. The normalised viability is 93.5% in the experiment on CAL-51 (0.1 nM); 91.3% in the experiment on HCC1937 (0.1 nM); 103% in the experiment on MFM-223 [3] (0.1 nM); 128% in the experiment on MDA-MB-436 (0.1 nM); 98.2% in the experiment on CAL-120 (0.1 nM); 113% with Hs578T (0.1 nM). For the same compound, the normalised viability came out at 110% with HCC1143 [4] (0.1 nM); 104% with BT-549 [5] (0.1 nM); 116% in the experiment on BT-474 (0.1 nM); 99.3% in the experiment on HCC1599 [6] (0.1 nM); 92.6% in the experiment on CAL-85-1 [7] (0.1 nM); 113% in the experiment with MDA-MB-231 (0.1 nM). The normalised viability with HCC1143 [8] (10 nM) turned out to be 91%.
As for `CNC(=O)c1cc(Oc2ccc(NC(=O)Nc3ccc(Cl)c(C(F)(F)F)c3)cc2)ccn1` [Sorafenib], the normalised viability was 109% and 102% with MDA-MB-453 (0.1 nM); 112% and 109% in the experiment with CAL-148 [2] (0.1 nM); 96.9% and 115% in the experiment with DU-4475 (0.1 nM); 103% and 90.7% in the experiment with SK-BR-3 (0.1 nM); 111% and 95.4% in the experiment with CAL-51 (0.1 nM); 101% and 85.2% with HCC1937 (0.1 nM). Moreover, the normalised viability in the experiment on MFM-223 [3] (0.1 nM) was 102% and 105%; in the experiment on MDA-MB-436 (0.1 nM), 88% and 95.8%; with CAL-120 (0.1 nM), 97.8% and 95.4%; in the experiment with Hs578T (0.1 nM), 113% and 99%; with HCC1143 [4] (0.1 nM), 109% and 96%; with BT-549 [5] (0.1 nM), 119% and 96%. The normalised viability in the experiment with BT-474 (0.1 nM) was 109% and 85.3%; in the experiment on HCC1599 [6] (0.1 nM) it was 106% and 123%; in the experiment on CAL-85-1 [7] (0.1 nM), 104% and 103%; in the experiment on MDA-MB-231 (0.1 nM), 92.8% and 93.4%; with HCC1143 [8] (10 nM), 101% and 80.6%. In addition, the “EC50, CellTiter-Blue viability” value was found to be 159 nM in the experiment with CAL-85-1 [9], 952 nM in the experiment on MFM-223 [10] and 27.1 nM in the experiment on BT-549 [11].
In the case of `CCC/C=C/C=C/C(=O)O[C@H]1/C(=C/C(=O)OC)C[C@H]2C[C@H]([C@@H](C)O)OC(=O)C[C@H](O)C[C@@H]3C[C@H](OC(C)=O)C(C)(C)[C@](O)(C[C@@H]4C/C(=C/C(=O)OC)C[C@H](/C=C/C(C)(C)[C@]1(O)O2)O4)O3` [Bryostatin 1], the normalised viability in the experiment on MDA-MB-453 (0.01 nM) was determined as 102%; in the experiment with CAL-148 [2] (0.01 nM), 98.8%; with MDA-MB-468 (1 nM), 99.1%; in the experiment on HDQ-P1 (0.01 nM), 100%; in the experiment with DU-4475 (0.01 nM) it was 118%; in the experiment on SK-BR-3 (1 nM) it was 103%. Also, the normalised viability with CAL-51 (0.01 nM) is 99.2%; in the experiment with HCC1937 (1 nM), 85.2%; in the experiment on MFM-223 [3] (0.01 nM), 96.2%; with MDA-MB-436 (0.01 nM), 140%; with CAL-120 (0.01 nM), 85.8%; in the experiment on Hs578T (0.01 nM), 106%. Moreover, the normalised viability with HCC1143 [4] (0.01 nM) came out at 114%; in the experiment on BT-549 [5] (0.01 nM) it was 109%; in the experiment with BT-474 (1 nM), 105%; in the experiment on HCC1599 [6] (0.01 nM), 123%; in the experiment with CAL-85-1 [7] (0.01 nM) it was 97.5%; with MDA-MB-231 (1 nM) it was 98.7%. In the experiment with HCC1143 [8] (1 nM), the normalised viability is 81.2%. The “EC50, CellTiter-Blue viability” value in the experiment on CAL-148 [12], in the experiment with CAL-85-1 [9] and in the experiment with HCC1599 [13] was > 100 nM throughout.

Source of the values: the supplement of paper PMC4862054.
